Source: the Kinase Knowledgebase extract (Sharma et al. 2016)

Target: MAPK14 (human) (UniProt Q16539)
Experiment: Inhibition of MAPK14 Kinase Activity

Sequence of MAPK14 (human) (Q16539 whole entry, looked up): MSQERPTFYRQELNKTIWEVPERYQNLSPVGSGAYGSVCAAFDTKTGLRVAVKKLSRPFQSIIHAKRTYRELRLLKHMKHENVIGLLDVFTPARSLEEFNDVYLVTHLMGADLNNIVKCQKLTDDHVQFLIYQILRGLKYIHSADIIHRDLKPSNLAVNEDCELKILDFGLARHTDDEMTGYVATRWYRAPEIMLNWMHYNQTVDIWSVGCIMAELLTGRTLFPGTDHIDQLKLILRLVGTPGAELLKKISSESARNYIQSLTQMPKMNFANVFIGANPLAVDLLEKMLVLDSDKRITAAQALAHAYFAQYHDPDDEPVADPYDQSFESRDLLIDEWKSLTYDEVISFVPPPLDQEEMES

IC50 [nM] | SMILES
< 2000 | Cc1cccc(C(=O)c2c(N[C@H]3CCN(C)C3)sc3c2ccc(=O)n3-c2ccccc2)c1
< 2000 | CN1CCC[C@@H](Nc2sc3c(ccc(=O)n3-c3ccccc3)c2C(=O)c2ccccc2)C1
< 2000 | Nc1sc2c(ccc(=O)n2-c2ccccc2)c1C(=O)c1ccccc1OC(F)(F)F
< 2000 | CN(C)C(=O)CNc1sc2c(ccc(=O)n2-c2ccccc2)c1C(=O)c1ccccc1
< 2000 | CCOC(=O)c1sc2c(ccc(=O)n2CC2CC2)c1C(=O)c1ccccc1
< 2000 | O=C(c1ccccc1)c1c(NC2CNC2)sc2c1ccc(=O)n2-c1ccccc1
< 2000 | O=C(c1ccccc1)c1c([N+](=O)[O-])sc2c1ccc(=O)n2-c1ccccc1
< 2000 | Cc1cc(C(=O)c2c(NC3CCN(C)CC3)sc3c2ccc(=O)n3-c2c(F)cccc2F)ccc1F
< 2000 | Cc1cc(C(=O)c2c(NC(=O)NC(C)(C)CO)sc3c2ccc(=O)n3-c2ccccc2)ccc1F
< 2000 | O=C(c1ccccc1)c1c(N2CC[C@@H](O)C2)sc2c1ccc(=O)n2-c1ccccc1
< 2000 | N[C@H]1CCN(C(=O)Nc2sc3c(ccc(=O)n3-c3ccccc3)c2C(=O)c2ccccc2)C1
< 2000 | CC(=O)Nc1sc2c(ccc(=O)n2-c2ccccc2)c1C(=O)c1cccc(C)c1
< 2000 | Cc1cc(C(=O)c2c(N)sc3c2ccc(=O)n3CC2CC2)ccc1F
< 2000 | Cc1cc(C(=O)c2c(NC(=O)N3CC[C@H](N(C)C)C3)sc3c2ccc(=O)n3-c2ccccc2)ccc1F
< 2000 | CC(C)(CO)NC(=O)Nc1sc2c(ccc(=O)n2-c2ccccc2Cl)c1C(=O)c1ccccc1
< 2000 | Cc1cc(C(=O)c2c(NC(=O)N[C@@H]3CCNC3)sc3c2ccc(=O)n3-c2ccccc2)ccc1F
< 2000 | CN1CC[C@@H](NC(=O)Nc2sc3c(ccc(=O)n3-c3ccccc3)c2C(=O)c2ccccc2)C1
< 2000 | CC(=O)Nc1sc2c(ccc(=O)n2-c2ccccc2F)c1C(=O)c1cccc(C)c1
< 2000 | CN1CCC(C(=O)Nc2sc3c(ccc(=O)n3-c3ccccc3)c2C(=O)c2ccccc2)CC1
< 2000 | CC(=O)Nc1sc2c(ccc(=O)n2-c2ccccc2)c1C(=O)c1ccccc1C#N
< 2000 | Nc1sc2c(ccc(=O)n2-c2ccccc2)c1C(=O)c1ccc(F)cc1F
< 2000 | Cc1cc(C(=O)c2c(NC3CCN(C)CC3)sc3c2ccc(=O)n3-c2ccc(F)cc2)ccc1F
< 2000 | O=C(c1ccccc1)c1c(N[C@@H]2CCNC2)sc2c1ccc(=O)n2-c1ccccc1

IC50 [nM] | SMILES
< 2000 | CN(C)C1CN(c2sc3c(ccc(=O)n3-c3ccccc3)c2C(=O)c2ccccc2)C1
< 2000 | Cc1cc(C(=O)c2c(NC(=O)NCC(C)(C)O)sc3c2ccc(=O)n3-c2ccccc2)ccc1F
< 2000 | Cc1cc(C(=O)c2c(NC3CN(C)C3)sc3c2ccc(=O)n3CC2CC2)ccc1F
< 2000 | CC(C)(CO)NC(=O)c1sc2c(ccc(=O)n2-c2ccccc2)c1C(=O)c1ccccc1
< 2000 | CC(=O)Nc1sc2c(ccc(=O)n2-c2ccccc2F)c1C(=O)c1ccccc1
< 2000 | Cc1ccc(-n2c(=O)ccc3c(C(=O)c4ccccc4)c(NC4CNC4)sc32)cc1
< 2000 | Nc1sc2c(ccc(=O)n2-c2ccccc2Cl)c1C(=O)c1ccccc1
< 2000 | Cc1ccc(-n2c(=O)ccc3c(C(=O)c4ccc(F)c(C)c4)c(N)sc32)cc1
< 2000 | Cc1cccc(C(=O)c2c(NC3CNC3)sc3c2ccc(=O)n3-c2ccccc2)c1
< 2000 | COc1ccccc1C(=O)c1c(N)sc2c1ccc(=O)n2-c1ccccc1
< 2000 | Cc1cc(C(=O)c2c(N)sc3c2ccc(=O)n3-c2ccc(F)cc2)ccc1F
< 2000 | CC(=O)Nc1sc2c(ccc(=O)n2-c2ccccc2)c1C(=O)c1ccc(C)c(C)c1
< 2000 | CC(=O)Nc1sc2c(ccc(=O)n2-c2ccccc2F)c1C(=O)c1ccc(F)c(C)c1
< 2000 | COc1ccccc1C(=O)c1c(NC(C)=O)sc2c1ccc(=O)n2-c1ccccc1
< 2000 | O=C(c1ccccc1)c1c(C(=O)N2CCC[C@H]2CO)sc2c1ccc(=O)n2-c1ccccc1
< 2000 | Cc1cc(C(=O)c2c(N)sc3c2ccc(=O)n3-c2ccccc2Cl)ccc1F
< 2000 | Nc1sc2c(ccc(=O)n2-c2ccccc2)c1C(=O)c1cccc(OC(F)(F)F)c1
< 2000 | NC1CCN(c2sc3c(ccc(=O)n3-c3ccccc3)c2C(=O)c2ccccc2)CC1
< 2000 | Cc1cccc(C(=O)c2c(NC3CN(C)C3)sc3c2ccc(=O)n3-c2ccccc2)c1
< 2000 | Cc1cc(C(=O)c2c(N[C@@H]3CCN(C)C3)sc3c2ccc(=O)n3-c2ccccc2)ccc1F
< 2000 | Nc1sc2c(ccc(=O)n2-c2ccccc2)c1C(=O)c1ccccc1Cl
< 2000 | Nc1sc2c(ccc(=O)n2-c2c(F)cccc2F)c1C(=O)c1ccccc1
